{"source": "paper PMC8858684", "about": "(FEBS letters, 2021)", "target": "CTX-M-14 β-lactamase (Escherichia coli, UniProt Q9L5C7)", "test": "hydrolysis kinetics", "format": "biochemical", "settings": "read-out: Cefotaxime / Km; purified enzyme"}
{"smiles": "CO/N=C(\\C(=O)N[C@@H]1C(=O)N2C(C(=O)O)=C(COC(C)=O)CS[C@H]12)c1csc(N)n1", "note": "[cefotaxime]", "values": [{"measurement": "Km", "result": "83.8 ± 2.3", "unit": "µM"}]}
